From ChEMBL document CHEMBL1129887, “Dicarboxylic acid inhibitors of phospholipase A2” (Bioorg Med Chem Lett, 1997)

Assays:
[1] = tested on: Mus musculus; assay: (§1) Antiinflammatory activity of compound was measured in the phorbol-ester induced mouse chronic ear edema assay; type: functional
[2] = target: T1, Phospholipase A2, membrane associated (Homo sapiens, UniProt P14555); assay: Compound was measured for the inhibition of human platelet PLA2 (HP-PLA2)
T1 sequence (P14555 whole entry): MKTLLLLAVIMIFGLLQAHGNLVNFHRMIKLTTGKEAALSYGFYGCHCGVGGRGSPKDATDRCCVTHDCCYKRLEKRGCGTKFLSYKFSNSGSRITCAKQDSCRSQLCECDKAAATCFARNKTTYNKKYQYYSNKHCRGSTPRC

[3] = tested on: Mus musculus; assay: as §1; type: functional; remark: listed apart in the source

C/C(=C\C(=O)O)C(=Cc1ccc2cc(OCc3ccccc3)c(OCc3ccccc3)cc2c1)c1cccc(C(=O)O)c1
ED50 [1]: 208 ug ear-1 dose-1

C/C(=C\C(N)=O)C(=Cc1ccc2cc3c(cc2c1)C(C)(C)CCC3(C)C)c1cccc(C(N)=O)c1
ED50 [1]: 186 ug ear-1 dose-1
IC50 [2]: 4 µM

C/C(=C\C(=O)O)C(=CCCc1ccc2cc3c(cc2c1)C(C)(C)CCC3(C)C)c1cccc(C(=O)O)c1
ED50 [1]: 89 ug ear-1 dose-1
IC50 [2]: 2 µM

CCCCCCCCCCOc1ccc2cc(C=C(/C(C)=C/C(=O)O)c3cccc(C(=O)O)c3)ccc2c1
ED50 [1]: 31 ug ear-1 dose-1
IC50 [2]: 14 µM

C/C(=C\C(=O)O)C(=CCCc1ccc(C23C[C@H]4C[C@@H](C2)C[C@@H](C3)C4)c(O)c1)c1cccc(C(=O)O)c1
IC50 [2]: 8 µM

C/C(=C\C(=O)O)C(=Cc1ccc2cc(OCCCc3ccccc3)ccc2c1)c1cccc(C(=O)O)c1
ED50 [1]: 30 ug ear-1 dose-1
ED50 [3]: 90 ug ear-1 dose-1
IC50 [2]: 17 µM

C/C(=C\C(=O)O)C(=Cc1ccc2cc3c(cc2c1)C(C)(C)CCC3(C)C)c1cccc(C(=O)O)c1
ED50 [1]: 9.37 ug ear-1 dose-1
IC50 [2]: 17 µM

CCCCCCCCCCOc1ccc(C=C(/C(C)=C/C(=O)O)c2cccc(C(=O)O)c2)cc1
IC50 [2]: 7 µM

CC1=C(/C=C/C(C)=C/C=C(/C(C)=C/C(=O)O)c2cccc(C(=O)O)c2)C(C)(C)CCC1
ED50 [1]: 160 ug ear-1 dose-1
